Experiment: Cuticle abrasion of treated hair switches
Procedure: Cuticle abrasion and sensory experiments were performed on bleached hair with unbleached “virgin” hair as a control.
A shampoo base was used to treat hair switches:
Two samples of the above formulation were prepared, with the addition of 0.2% arginine to one of the samples.
Four sets of switches were used and treated as follows:
Set 1. Bleached switches washed 6 times in base, with final base wash containing 0.2% arginine.
Set 2. Bleached switches based washed 6 times in base with 0.2% arginine
Set 3. Bleached switches washed 6 times in base without 0.2% arginine
Set 4. Unbleached virgin hair washed in base without arginine.
The treated samples were subjected to cuticle abrasion (in duplicate).

N=C(N)NCCC[C@H](N)C(=O)O [arginine]
cuticle cohesion after cuticle abrasion (set 1: bleached switches washed 6 times in base, only final wash containing 0.2% arginine): evidence of improved cuticle cohesion | amount of cuticle removed by abrasion (set 1: bleached switches washed 6 times in base, only final wash containing 0.2% arginine, compared with set 3 (no arginine)): Significantly less cuticle was removed than set 3 | removed cuticle sample size and appearance (set 2: bleached switches washed 6 times in shampoo base with 0.2% arginine): closer in sample size and appearance to the unbleached sample | cuticle cohesion after cuticle abrasion (set 2: bleached switches washed 6 times in shampoo base with 0.2% arginine, compared with set 3 (base without arginine)): significantly better cuticle cohesion

— patent US6509011B1, “Method of hair treatment using organic amino compounds” (Unilever Home & Personal Care USA, division of Conopco, Inc., priority 1999, dated 2003)
